Reference: ChEMBL document CHEMBL1147886, “Synthesis and pharmacological evaluation of novel conformationally constrained homologues of glutamic acid” (Eur J Med Chem, 2007)
pIC50, pKi: −log10 of the molar value.

Experiments:
Format in all cases: cell membranes
Glutamate NMDA receptor = assay: Displacement of [3H]CGP-39653 from NMDA receptor in rat cortical membrane
[1] = Displacement of [3H]AMPA from AMPA receptor in rat cortical membrane
[2] = Displacement of [3H]KA from KA receptor in rat cortical membrane

## O=C(O)[C@@H]1C[C@@]2(CN1)CC(O)=NO2
Glutamate NMDA receptor
  pKi: < 4.00
[1]
  pIC50: < 4.00
[2]
  pIC50: < 4.00

## O=C(O)[C@H]1C[C@]2(CN1)CC(O)=NO2
Glutamate NMDA receptor
  pKi: < 4.00
[1]
  pIC50: < 4.00
[2]
  pIC50: < 4.00

## O=C(O)C1=NO[C@]2(CN[C@H](C(=O)O)C2)C1
Glutamate NMDA receptor
  pKi: < 4.00
[1]
  pIC50: < 4.00
[2]
  pIC50: < 4.00

## O=C(O)C1=NO[C@]2(CN[C@@H](C(=O)O)C2)C1
Glutamate NMDA receptor
  pKi: < 4.00
[1]
  pIC50: < 4.00
[2]
  pIC50: < 4.00

## O=C(O)[C@@H]1C[C@]2(CN1)CC(O)=NO2
Glutamate NMDA receptor
  pKi: < 4.00
[1]
  pIC50: < 4.00
[2]
  pIC50: < 4.00

## O=C(O)[C@H]1C[C@@]2(CN1)CC(O)=NO2
Glutamate NMDA receptor
  pKi: < 4.00
[1]
  pIC50: < 4.00
[2]
  pIC50: < 4.00

## O=C(O)C1=NO[C@@]2(CN[C@H](C(=O)O)C2)C1
Glutamate NMDA receptor
  pKi: < 4.00
[1]
  pIC50: < 4.00
[2]
  pIC50: < 4.00

## O=C(O)C1=NO[C@@]2(CN[C@@H](C(=O)O)C2)C1
Glutamate NMDA receptor
  pKi: < 4.00
[1]
  pIC50: < 4.00
[2]
  pIC50: < 4.00

## N[C@@H](CCCP(=O)(O)O)C(=O)O
[1]
  pIC50: < 4.00
[2]
  pIC50: < 4.00

## N[C@H](CCCP(=O)(O)O)C(=O)O
[1]
  pIC50: < 4.00
[2]
  pIC50: < 4.00

## N[C@H](C[C@H]1CC(C(=O)O)=NO1)C(=O)O (racemic)
[1]
  pIC50: < 4.00
[2]
  pIC50: < 4.00

## N[C@]1(C(=O)O)C[C@H]1[C@H]1CC(C(=O)O)=NO1 (racemic)
Glutamate NMDA receptor
  pKi: < 4.00
[1]
  pIC50: < 4.00
[2]
  pIC50: < 4.00

## N[C@]1(C(=O)O)C[C@H]1[C@@H]1CC(C(=O)O)=NO1 (racemic)
Glutamate NMDA receptor
  pKi: 4.47
[1]
  pIC50: < 4.00
[2]
  pIC50: < 4.00

## N[C@]1(C(=O)O)C[C@H]1[C@H]1CC(O)=NO1 (racemic)
Glutamate NMDA receptor
  pKi: < 4.00
[1]
  pIC50: < 4.00
[2]
  pIC50: < 4.00

## N[C@H](C[C@@H]1CC(C(=O)O)=NO1)C(=O)O (racemic)
[1]
  pIC50: < 4.00
[2]
  pIC50: < 4.00

## N[C@]1(C(=O)O)C[C@H]1[C@@H]1CC(O)=NO1 (racemic)
Glutamate NMDA receptor
  pKi: 4.89
[1]
  pIC50: < 4.00
[2]
  pIC50: < 4.00
